Measurements published in article PMC11233548 (Communications Biology, 2024).
Residues, ends and D or L forms follow the SMILES beside them.

Tests used:
[1] = biological target: GST-B-RBD (Homo sapiens, UniProt P15056); test: Competitive fluorescence polarization, displacement of F-L5UR from GST-B-RBD; type: binding; settings: competitive fluorescence polarization with F-L5UR; Fig. 2e: F-L5UR (10 nM), GST-B-RBD (15 µM); method: 5 nM F-L5UR, 200 nM RBD; pH 7.4; 30 min, ~22 °C; n = 3
[2] = biological target: T1, C-RBD (Homo sapiens, UniProt P04049); test: Competitive fluorescence polarization, displacement of F-L5UR from C-RBD; type: binding; settings: F-L5UR (5 nM), C-RBD (200 nM), pH 7.4, 30 min, ~22 °C, n = 3
T1 construct: GST-tagged C-Raf-RBD (residues 50–134 of human C-Raf); GST (N, cleaved yes); made in house; host or cells: E. coli BL21 Star (DE3)pLysS

[3] = biological target: T2, B-RBD (Homo sapiens, UniProt P15056); test: QRET assay, Eu-L5URcore binding to B-RBD; settings: Eu-L5URcore (29 nM), B-RBD twofold dilutions, MT2 quencher, 10 mM HEPES pH 7.4, 10 mM NaCl, 30 min, ~22 °C, time-resolved luminescence, n = 2, read-out: IC50
T2 construct: GST-tagged B-Raf-RBD (residues 155–227 of human B-Raf); GST (N); made in house; host or cells: E. coli BL21 Star (DE3)pLysS
T2 sequence (P15056 155-227): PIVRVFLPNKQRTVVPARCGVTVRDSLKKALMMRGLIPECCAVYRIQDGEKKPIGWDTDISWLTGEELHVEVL
Description: The QRET assays were modified from our previously described quenching luminescence assays[69]–[71]. Ac-K-L5URcore was conjugated with nonadentate europium chelate, {2,2′,2′′,2’“-{[4′-(4’“-isothiocyanatophenyl)-2,2′,6′,2′′-terpyridine-6,6′′-diyl]bis(methylene-nitrilo)}tetrakis(acetate)}europium(III) (QRET Technologies, Finland) via the epsilon amine of the N-terminal lysine that was added to the L5UR-core peptide sequence and purified with analytical reverse-phase HPLC. The current homogeneous QRET binding assay is based on the quenching of non-bound Eu-K-L5URcore with MT2 quencher (QRET Technologies), while bound labeled peptide is luminescent. In the assay, purified B-RBD or Gal1 were twofold diluted in an assay buffer containing 10 mM HEPES pH 7.4 and 10 mM NaCl added in 5 μL to a white low-volume, round bottom 384-well plate. Eu-K-L5UR core peptide (29 nM), mixed with MT2 according to the manufacturer’s instructions in the assay buffer supplemented with 0.01% (v/v) Triton X-100, was added in 5 μL volume to wells, and incubated for 30 min at ~22 °C on a shaker. The luminescence was measured with Tecan Spark multimode microplate reader (Tecan, Austria) in time-resolved mode using λexcitation 340 ± 40 nm and λemission 620 ± 10 nm with 800 μs delay and 400 μs window times.

GST-B-RBD, sequence (P15056 155-227): as above

Work on `CC(=O)N[C@@H](CO)C(=O)N[C@@H](CCCNC(=N)N)C(=O)N[C@@H](CO)C(=O)N[C@@H](CO)C(=O)N[C@@H](CC(C)C)C(=O)N[C@@H](CCCNC(=N)N)C(=O)N[C@@H](CO)C(=O)N[C@@H](CCCNC(=N)N)C(=O)N[C@@H](Cc1c[nH]c2ccccc12)C(=O)NCC(=O)N[C@@H](CCCNC(=N)N)C(=O)N[C@@H](Cc1ccccc1)C(=O)N[C@@H](CC(C)C)C(=O)N[C@@H](CC(C)C)C(=O)N[C@@H](CCC(N)=O)C(=O)N[C@@H](CCCNC(=N)N)C(=O)NCC(=O)N[C@@H](CO)C(=O)N[C@@H](Cc1c[nH]c2ccccc12)C(=O)N[C@H](C(=O)NCC(=O)N1CCC[C@H]1C(=O)N[C@@H](CCCNC(=N)N)C(N)=O)[C@@H](C)O` [L5URcore] (Ac-SRSSLRSRWGRFLLQRGSWTGPR-NH2) yielded an IC50 [1] of 41 ± 1 µM, an IC50 [2] of 14 ± 6 µM and an EC50 (B-RBD binding to Eu-L5URcore) [3] of 18 ± 1 µM.
